Assays:
DeaD strain BB579 = assay: yeast Death of Daughters (DeaD) lifespan assay, reversal of nicotinamide (NAM) lifespan shortening; type: cell-based, S. cerevisiae (yeast); conditions: for average improvement, 250 nM to 1μM: fold improvement in DeaD lifespan (OD600 at 60 h normalized to no drug control), compound 250 nM to 1μM; for average improvement, 250 nM to 1μM / fold induction at 0.125 µM / average improvement, 0.5 to 100 nM: 0.75 mM NAM; for EC50 / fold induction at 0.125 µM: Saccharomyces cerevisiae; for EC50: BB579, read-out: C50 (concentration that yields half the maximal activity) by DeaD assay; for fold induction at 0.125 µM: BB579, compound 125 nM; for fold induction at 0.125 µM / average improvement, 0.5 to 100 nM: fold improvement in DeaD lifespan; for average improvement, 0.5 to 100 nM: compound 0.5 to 100 nM
Method: The C50 (50% maximal activity) is a measure of the efficacy of a compound as a LAC and is determined by quantifying the dose-response curve for each LAC by DeaD assay in the presence and absence of nicotinamide. The C50 is the concentration of LAC that yields half the maximal activity. Dose response curves will generally peak and then decline. The decline is most likely due to toxicity at higher LAC concentrations. The C50 is determined relative to the maximal lifespan extension (the peak value). C50 values are provided for C1-5.
The compounds listed in Table 1 of Example 3 were assessed for their anti-aging activities using the yeast Death of Daughters (DeaD) explicative lifespan assay. Specifically, the compounds were assessed for their capacity to reverse the lifespan shortening effect of exogenous nicotinamide (NAM), which is a known inhibitor of the anti-aging protein Sir2p (Anderson et al., 2003; Bitterman et al., 2002). These compounds were compared to the activities of known cluster 1 compounds, S3-5, and #3-11.
“Activity” here is defined herein as the fold improvement in DeaD lifespan in the presence of 0.75 mM NAM relative to lifespan in the absence of cluster 1 compounds, over a range of compound concentrations between 0.5 nm-1 μm. This “activity” value is a means of assessing the usefulness of a compound as a LAC. The assays were performed as follows. DeaD strain BB579 was grown overnight in a permissive (galactose-containing) medium to mid-log phase, and then diluted to an OD600 of 0.0001 in restrictive (glucose-containing) medium with 0.75 mM NAM and the compound to be tested. Cells were then incubated at 30° C. for 3 days, with shaking and OD600 measurement every 20 minutes. The OD600 reading after 60 hours in restrictive medium, normalized to the same measurement for the “no drug” control, was used as the number for comparison.
Five of the compounds with higher activity than S3-5 were selected for further study and were designated C1-1, C1-2, C1-3, C1-4, and C1-5 (see Table 2, Example 4). All data in FIGS. 1A(1)-(6) are from media containing 0.75 mM NAM. Note the different ranges of the X axes in FIGS. 1A(1)-(6)—very different C50 values for the compounds of the present invention compared the known C1 cluster compounds. […] All five had C50 values below 50 nM, while the C50 value for S3-5 was about 650 nM, and the C50 for S1-9 was about 350 nM.

[1] = tested on: strain FY839 (healthy wild-type); assay: Toxicity of compounds by yeast growth assay; type: cell-based; conditions: FY839, inset in FIG. 2
Method: The toxicity of compounds C1-1, C1-2, C1-3, C1-4, and C1-5 in yeast was assessed by determining their effects on growth of a wild-type yeast strain. FIG. 2 is a graphical representation of the toxicity data. The yeast used was strain FY839 (healthy wild-type) growing in SCD. At 12 hours all were in log phase. […] This concentration is many-fold higher than the effective concentrations of these compounds as assessed by DeaD lifespan assays.

RAW 264.7 cells = assay: LPS-induced TNF-α secretion from RAW 264.7 cells (ELISA); type: cell-based, murine; conditions: compound 1 micromolar, LPS 10 ng/ml for 6 hrs; FIG. 3
Method: FIG. 3. […] To obtain the data summarized in FIG. 3, RAW […] cells were incubated with Scrims (compounds of present invention) (1 uM), PI3K inhibitor positive control (LY-294002; 25 uM) or vehicle (DMSO) for 1 hr. LPS (10 ng/ml) was added to the medium. 6 hrs post LPS administration medium was collected and analyzed for TNFa levels using ELISA.
In vitro anti-inflammatory activity in RAW 264.7 cells (murine leukaemic monocyte macrophage cell line): Lipopolysaccharide (LPS)-induced secretion of cytokines from RAW cells is a recognized in vitro assay for anti-inflammatory drugs. The anti-inflammatory activities of C1-1, C1-2, C1-3, C1-4, and C1-5 in the RAW cell model. RAW cells exposed to LPS were incubated with each of the five molecules at 1 micromolar concentration. The PIK3 inhibitor LY-294002 was used at 25 micromolar as a positive control. […] LPS was administered at 10 ng/ml for 6-hrs. TNF-α levels were quantified by ELISA assay. Results are presented as % of control with standard deviations of three replicates.

| Structure (SMILES) | average improvement, 250 nM to 1μM (DeaD strain BB579) | fold induction at 0.125 µM (DeaD strain BB579) | further results |
| --- | --- | --- | --- |
| CCCC(=O)C1C(=O)C(C(C)=O)C(=O)CC1CC(C)CCC (stereo not shown) [#3-11, reference compound] | 1.30 |  |  |
| CCC(=O)C1C(=O)CC(C2CCCCC2)CC1=O (stereo not shown) [SRI# 22788, 1,3-cyclohexanedione, 2-propanoyl-5-cyclohexyl-] |  |  | EC50 (DeaD strain BB579): < 0.05 µM; toxic effects on growth at concentrations below 1 μM [1]: little or no toxic effects on growth; reduction of secreted TNF-α relative to vehicle treated cells (RAW 264.7 cells): exhibited anti-inflammatory activity |
| CC(=O)C1C(=O)CC(c2cccs2)CC1=O (stereo not shown) [SRI# 22933, 1,3-cyclohexanedione, 2-acetyl 5-[thien-2-yl]-] |  |  | EC50 (DeaD strain BB579): < 0.05 µM; toxic effects on growth at concentrations below 1 μM [1]: little or no toxic effects on growth; reduction of secreted TNF-α relative to vehicle treated cells (RAW 264.7 cells): exhibited anti-inflammatory activity |
| CCCCC1CC(=O)C(C(C)=O)C(=O)C1 (stereo not shown) [SRI# 22942, 1,3-cyclohexanedione, 2-acetyl-5-butyl-] |  |  | EC50 (DeaD strain BB579): < 0.05 µM; toxic effects on growth at concentrations below 1 μM [1]: little or no toxic effects on growth; reduction of secreted TNF-α relative to vehicle treated cells (RAW 264.7 cells): exhibited anti-inflammatory activity |
| CCC(=O)C1C(=O)CC(C2CC3C=CC2C3)CC1=O (stereo not shown) [SRI# 22965, 1,3-cyclohexanedione, 2-propanoyl-5-[bicyclo[2.2.1]hept-2-en-5-yl]-] |  |  | EC50 (DeaD strain BB579): < 0.05 µM; reduction of secreted TNF-α relative to vehicle treated cells (RAW 264.7 cells): exhibited anti-inflammatory activity |
| CCC(=O)C1C(=O)CC(C2CCCCC2)CC1=O (stereo not shown) [compound 22788] | 2.74 | 3.4 | average improvement, 0.5 to 100 nM (DeaD strain BB579): 1.75 |
| CCC(=O)C1C(=O)CC(c2c(F)cccc2Cl)CC1=O (stereo not shown) [compound 22789] | 2.62 | 2.61 | average improvement, 0.5 to 100 nM (DeaD strain BB579): 1.30 |
| CCC(=O)C1C(=O)CC(c2ccc(F)cc2)CC1=O (stereo not shown) [compound 22790] | 2.64 | 2.85 | average improvement, 0.5 to 100 nM (DeaD strain BB579): 1.37 |
| CCC(=O)C1C(=O)CC(c2ccco2)CC1=O (stereo not shown) [compound 22791] | 2.15 | 1.77 |  |
| COc1cc(OC)c(C2CC(=O)C(C(=O)C3CC3)C(=O)C2)c(OC)c1 (stereo not shown) [compound 22821] | 1.62 | 1.27 |  |
| Cc1ccc(C2CC(=O)C(C(=O)C3CC3)C(=O)C2)cc1 (stereo not shown) [compound 22824] | 1.42 | 1.32 |  |
| O=C1CC(c2ccc(F)cc2)CC(=O)C1C(=O)C1CC1 (stereo not shown) [compound 22835] | 2.21 | 2.48 |  |
| CC(C)C(=O)C1C(=O)CC(c2ccc(F)cc2)CC1=O (stereo not shown) [compound 22837] | 1.72 |  |  |
| CC(=O)C1C(=O)CC(c2ccc(Cl)cc2Cl)CC1=O (stereo not shown) [compound 22840] | 1.87 | 2.24 |  |
| O=C1CC(C2CCCCC2)CC(=O)C1C(=O)c1ccccc1 (stereo not shown) [compound 22845] | 2.11 | 1.99 |  |
| CC(=O)C1C(=O)CC(c2c(F)cccc2Cl)CC1=O (stereo not shown) [compound 22847] | 2.17 | 3.25 |  |
| CC(=O)C1C(=O)CC(c2ccco2)CC1=O (stereo not shown) [compound 22848] | 1.58 |  |  |
| CC(=O)C1C(=O)CC(c2ccc(F)cc2)CC1=O (stereo not shown) [compound 22850] | 1.59 |  |  |
| CC(=O)C1C(=O)CC(C2CC3C=CC2C3)CC1=O (stereo not shown) [compound 22856] | 2.18 | 3.18 |  |
| O=C1CC(c2ccccc2)CC(=O)C1C(=O)C1CC1 (stereo not shown) [compound 22878] | 2.11 | 2.62 |  |
| CC(C)C(=O)C1C(=O)CC(c2ccccc2)CC1=O (stereo not shown) [compound 22880] | 1.59 | 1.49 |  |

| Structure (SMILES) | average improvement, 250 nM to 1μM (DeaD strain BB579) | fold induction at 0.125 µM (DeaD strain BB579) | further results |
| --- | --- | --- | --- |
| O=C1CC(c2ccc(Cl)cc2Cl)CC(=O)C1C(=O)C1CC1 (stereo not shown) [compound 22889] | 1.64 |  |  |
| CC(C)C(=O)C1C(=O)CC(c2ccc(Cl)cc2Cl)CC1=O (stereo not shown) [compound 22890] | 1.46 |  |  |
| O=C1CC(c2cccs2)CC(=O)C1C(=O)C1CC1 (stereo not shown) [compound 22897] | 1.85 | 1.25 |  |
| CC(C)C(=O)C1C(=O)CC(c2cccs2)CC1=O (stereo not shown) [compound 22898] | 1.37 |  |  |
| CCCCCCC1CC(=O)C(C(C)=O)C(=O)C1 (stereo not shown) [compound 22926] | 1.87 | 0.99 |  |
| CCCCCCC1CC(=O)C(C(=O)CC)C(=O)C1 (stereo not shown) [compound 22927] | 1.43 |  |  |
| CCC(=O)C1C(=O)CC(c2cccs2)CC1=O (stereo not shown) [compound 22930] | 2.33 | 2.21 |  |
| CC(=O)C1C(=O)CC(C(C)C)CC1=O (stereo not shown) [compound 22931] | 2.09 | 1.86 |  |
| CCC(=O)C1C(=O)CC(C(C)C)CC1=O (stereo not shown) [compound 22932] | 1.80 | 1.76 |  |
| CC(=O)C1C(=O)CC(c2cccs2)CC1=O (stereo not shown) [compound 22933] | 2.55 | 2.71 | average improvement, 0.5 to 100 nM (DeaD strain BB579): 1.70 |
| CC(=O)C1C(=O)CC(c2ccc3c(c2)OCO3)CC1=O (stereo not shown) [compound 22935] | 1.51 |  |  |
| CCC(=O)C1C(=O)CC(c2ccc3c(c2)OCO3)CC1=O (stereo not shown) [compound 22936] | 1.46 |  |  |
| CC(=O)C1C(=O)CC(c2cn(C)c3ccccc23)CC1=O (stereo not shown) [compound 22939] | 1.60 |  |  |
| CCC1CC(=O)C(C(C)=O)C(=O)C1 (stereo not shown) [compound 22941] | 1.62 |  |  |
| CCCCC1CC(=O)C(C(C)=O)C(=O)C1 (stereo not shown) [compound 22942] | 2.49 | 2.87 | average improvement, 0.5 to 100 nM (DeaD strain BB579): 1.71 |
| CCCCC1CC(=O)C(C(=O)CC)C(=O)C1 (stereo not shown) [compound 22943] | 2.33 | 2.79 |  |
| CCCCCC1CC(=O)C(C(C)=O)C(=O)C1 (stereo not shown) [compound 22944] | 2.28 | 2.72 | average improvement, 0.5 to 100 nM (DeaD strain BB579): 1.21 |
| CCCCCC1CC(=O)C(C(=O)CC)C(=O)C1 (stereo not shown) [compound 22945] | 2.54 | 1.96 |  |
| CCCC(=O)C1C(=O)CC(c2cn(C)c3ccccc23)CC1=O (stereo not shown) [compound 22947] | 1.64 |  |  |
| CCC(=O)C1C(=O)CC(C2CC3C=CC2C3)CC1=O (stereo not shown) [compound 22965] | 2.57 | 3.65 | average improvement, 0.5 to 100 nM (DeaD strain BB579): 1.72 |

Source: patent US8846747B2, “Compounds and methods for altering lifespan of eukaryotic organisms” (University of Rochester, priority 2009, dated 2014)
